Reference: PubChem BioAssay (NCI)
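Tested at 5 concentrations; 48 h exposure; 96-well plates; endpoints linearly interpolated, else capped at highest concentration. Definition used: TGI = concentration required for complete inhibition of growth.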

Legend:
Experiment in all cases: growth of human tumour cells (NCI), 48 h
[1] = system: HL-60(TB) leukemia
[2] = system: UACC-257 melanoma
[3] = system: HS 578T breast
[4] = system: EKVX NSCLC
[5] = system: HOP-92 NSCLC
[6] = system: SNB-75 CNS
[7] = system: K-562 leukemia
[8] = system: MDA-MB-435
[9] = system: ACHN renal
[10] = system: SW-620 colon
[11] = system: U251 CNS
[12] = system: OVCAR-8 ovarian
[13] = system: A549 NSCLC
[14] = system: HCC-2998 colon
[15] = system: CCRF-CEM leukemia
[16] = system: HCT-15 colon
[17] = system: DU-145 prostate
[18] = system: OVCAR-3 ovarian
[19] = system: NCI-H522 lung
[20] = system: T-47D breast
[21] = system: MDA-MB-231 breast
[22] = system: SK-OV-3 ovarian
[23] = system: NCI-H23 lung
[24] = system: KM12 colon
[25] = system: OVCAR-4 ovarian
[26] = system: RXF 393 renal
[27] = system: COLO 205 colon
[28] = system: TK-10 renal
[29] = system: SR leukemia
[30] = system: SF-539 CNS
[31] = system: CAKI-1 renal
[32] = system: MOLT-4 leukemia
[33] = system: SNB-19 CNS
[34] = system: SN12C renal
[35] = system: IGROV1 ovarian
[36] = system: OVCAR-5 ovarian
[37] = system: SK-MEL-2 melanoma
[38] = system: SF-295 CNS
[39] = system: SK-MEL-5 melanoma
[40] = system: LOX IMVI melanoma
[41] = system: HT29 colon
[42] = system: PC-3 prostate
[43] = system: UACC-62 melanoma
[44] = system: M14 melanoma
[45] = system: RPMI-8226 leukemia
[46] = system: BT-549 breast
[47] = system: MCF7 breast
[48] = system: HCT-116 colon
[49] = system: MDA-N
[50] = system: NCI-H460 lung
[51] = system: NCI/ADR-RES ovarian
[52] = system: SF-268 CNS
[53] = system: SK-MEL-28 melanoma
[54] = system: UO-31 renal
[55] = system: A498 renal
[56] = system: 786-0 renal
[57] = system: NCI-H226 lung
[58] = system: MALME-3M melanoma
[59] = system: HOP-62 NSCLC

Measured: TGI

CCC(=O)NC(Nc1ccccc1F)(C(F)(F)F)C(F)(F)F
not listed: [55] | [56] | [57] | [58] | [59]
> 100 µM: all other assays above

Cc1ncc([N+](=O)[O-])n1CCNC(=O)CCC(=O)NCCCn1ccnc1[N+](=O)[O-]
not listed: [14] | [33]
> 100 µM: all other assays above

CCOP(=O)(OCC)C(C)(C)OC(=O)NC(F)(F)F
99.6 µM: [57]
not listed: [5] | [19] | [55]
> 100 µM: all other assays above
